# Results as given in US10004786B2 (Zealand Pharma A/S, priority 2009, dated 2018).
# Numbered stars: 1 amine (or outer) side, 2 acyl side, 3 side chain; on linkers, the order of the positions; unused ones are H or OH. Square brackets hold non-standard residues; d marks the D form. Side chains are listed from the residue outwards. Peptide text beside a SMILES is read from it. * marks the point of attachment. γGlu = O=C(O)[C@H](CCC(=O)[*:2])N[*:1]; Palmitoyl = CCCCCCCCCCCCCCCC(=O)*; Aib = CC(C)(N)C(=O)O
# How the values were obtained:
# human Glucagon-R = molecular target: T1, human Glucagon-R (Homo sapiens, UniProt P47871); experiment: Glucagon receptor efficacy assay (cAMP formation in HEK293 cells expressing human Glucagon-R); type: cell-based; conditions: Table 1a, HEK293 cells expressing hGlucagonR, read-out: EC50 (nM) GluR
# T1 construct: expressed in transfected cells
# T1 sequence (P47871 26-477): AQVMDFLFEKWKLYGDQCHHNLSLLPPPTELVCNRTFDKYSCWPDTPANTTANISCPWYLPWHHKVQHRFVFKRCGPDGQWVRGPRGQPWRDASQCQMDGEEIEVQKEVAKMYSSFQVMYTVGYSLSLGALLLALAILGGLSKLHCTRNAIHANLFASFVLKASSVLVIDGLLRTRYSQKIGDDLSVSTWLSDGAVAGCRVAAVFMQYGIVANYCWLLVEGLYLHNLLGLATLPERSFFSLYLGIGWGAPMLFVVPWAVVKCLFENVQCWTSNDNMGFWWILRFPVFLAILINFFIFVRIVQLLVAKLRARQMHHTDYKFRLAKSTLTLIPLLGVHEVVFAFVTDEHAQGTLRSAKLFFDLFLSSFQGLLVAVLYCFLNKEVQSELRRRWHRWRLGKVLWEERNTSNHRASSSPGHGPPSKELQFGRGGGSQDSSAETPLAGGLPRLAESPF
# Experimental: The 5′-end primers additionally encoded a near Kozak consensus sequence to ensure efficient translation.
# 48 hr after transfection cells were seeded for limited dilution cloning and selected with 1 mg/ml G418 in the culture medium.
# On the day of analysis, growth medium was removed and the cells washed once with 200 μl Tyrode buffer. […] The reaction was stopped by addition of 25 μl 0.5 M HCl and incubated on ice for 60 min. The cAMP content was estimated using the FlashPlate® cAMP kit from Perkin-Elmer.
# Efficacy of the GluGLP-1 agonists were estimated by exposing cells expressing hGlucagonR and hGLP-1R to the listed acylated compounds at increasing concentrations and measuring the formed cAMP as described in Methods.
# GluR = molecular target: T2, GluR (Homo sapiens, UniProt P47871); experiment: Hepatocyt cAMP formation (primary human hepatocyts); type: cell-based
# T2 construct: Primary human hepatocyts provided by Lonza Walkersvill, Inc; host or cells: primary human hepatocytes
# T2 sequence (P47871 26-477): as above
# Experimental: Primary human hepatocyts provided by Lonza Walkersvill, Inc. were carefully washed in TB buffer and incubated at 37° C. with peptides dissolved in TB buffer supplemented with 100 μM IBMX and 0.1% casein for 15 minutes. Prior to addition to the cells, the peptide dilutions were pre-warmed to 37° C. The reaction was stopped by addition of 25 μl of ice cold 0.5 M HCl, and the cells were incubated on ice for 60 min. The cAMP content in the wells was determined by adding 25 μl of the acid extracts from the wells to 75 μl sodium acetate buffer, pH 6.2, in 96-well microtiter “FlashPlates” coated with scintillant and anti-cAMP antibodies.
# The amount of cAMP produced by the cells was calculated by extrapolation to a cAMP standard curve.
# EC50 values were estimated by fitting the cAMP data to the below formula using Sigma Plot: […]
# [1] = Food intake in young lean and old obese C57BL/6J mice; type: in vivo; conditions: s.c. at t=0 h and t=12 h, p<0.05 versus vehicle
# Experimental: C57BL/6J mice were on a high fat diet for 11 days and C57BL/6J mice were on a high fat diet for 52 weeks.
# 3 days before study, the mice were transferred to individual cages and weighed. 4 days before study, they were acclimatized to handling and treatment by daily s.c. injections. On the day before the experiment food was removed at 20:00. […] Immediately after treatment (t=0), pre-weighed food were introduced to the mice and the cumulative food intake was measured by weighing the remaining food after t=1, 2, 4, 8, 12 and 24 hours. After weighing the food and the animals at t=24 h, the mice were sacrificed by cervical dislocation.
# Immediately after treatment (t=0), pre-weighed food were introduced to the mice and the cumulative food intake was measured by weighing the remaining food after t=1, 2, 4, 8, 12 and 24 hours.
# [2] = Body weight gain in high fat fed C57BL/6J mice (10 days); type: in vivo; conditions: short term high fat-fed C57BL/6J mice
# Experimental: C57Bl/6J male mice, 6 weeks old, were acclimatized in their new environment for 4 weeks with free access to high fat diet (HFD) (D12492, Research Diet Inc., New Brunswick, USA) and water. The animals were injected s.c. with 100 μl vehicle for a period of three days to acclimatize the animals to handling and injections, prior to initiation of peptide treatment. […] Throughout the study, body weights were recorded daily and used to administer the body weight-corrected doses of peptide. All animals were sacrificed on the same day by cervical dislocation.
# C57Bl/6J male mice on high fat diet (HFD) were treated (b.i.d.; s.c.) (0.5 and 5 nmol/kg) or vehicle. Body weights were recorded daily and used to administer the body weight-corrected doses of peptide throughout the study. Data are shown as mean±SEM in FIG. 7.
# [3] = Liver weight/body weight of C57BL/6J mice treated for 2 weeks; type: in vivo; conditions: 5 nmol/kg twice daily s.c.
# Experimental: Mice were treated twice daily s.c. with Cpd. 1 and Cpd. 11 (at two doses: 0.5 and 5 nmol/kg) or vehicle for 2 weeks. Throughout the study, body weights were recorded daily and used to administer the body weight-corrected doses of peptide. On the day of sacrifice, the liver was exposed, and weighed.
# [4] = Pharmacokinetic screening in mouse plasma after subcutaneous administration; type: in vivo; conditions: sc, mice, 100 nmol/kg s.c., * = only two time points used for calculation
# Experimental: Mice were dosed 100 nmol/kg subcutaneously (s.c.). The mice were sacrificed and the blood collected at the following time points; 0.5, 2, 4, 6, 16 and 24 h. Plasma samples were analyzed using protein precipitation, followed by solid phase extraction (SPE) and liquid chromatography mass spectrometry (LC-MS).
# Pharmacokinetic profiles were determined for various acylated compounds.
compound,measurement,setting,value
CCCCCCCCCCCCCCCC(=O)NCCCC(=O)NCCCC[C@H](NC(=O)[C@H](CO)NC(=O)[C@H](CC(=O)O)NC(=O)[C@H](CC(C)C)NC(=O)[C@H](Cc1ccc(O)cc1)NC(=O)[C@H](CCCCN)NC(=O)[C@H](CO)NC(=O)[C@H](Cc1ccc(O)cc1)NC(=O)[C@H](CC(=O)O)NC(=O)[C@H](CO)NC(=O)[C@@H](NC(=O)[C@H](Cc1ccccc1)NC(=O)[C@@H](NC(=O)CNC(=O)[C@H](CCC(N)=O)NC(=O)C(C)(C)NC(=O)[C@@H](N)Cc1c[nH]cn1)[C@@H](C)O)[C@@H](C)O)C(=O)N[C@@H](C)C(=O)N[C@@H](C)C(=O)N[C@@H](Cc1c[nH]cn1)C(=O)N[C@@H](CC(=O)O)C(=O)N[C@@H](Cc1ccccc1)C(=O)N[C@H](C(=O)N[C@@H](CCC(=O)O)C(=O)N[C@@H](Cc1c[nH]c2ccccc12)C(=O)N[C@@H](CC(C)C)C(=O)N[C@@H](CC(C)C)C(=O)N[C@@H](CO)C(=O)N[C@@H](C)C(N)=O)C(C)C [Compound 27],EC50,human Glucagon-R,0.147 nM
CCCCCCCCCCCCCCCC(=O)N[C@@H](CCC(=O)NCCCC[C@H](NC(=O)[C@H](C)NC(=O)[C@H](C)NC(=O)[C@H](CCCCN)NC(=O)[C@H](CO)NC(=O)[C@H](CC(=O)O)NC(=O)[C@H](CC(C)C)NC(=O)[C@H](Cc1ccc(O)cc1)NC(=O)[C@H](CCCCN)NC(=O)[C@H](CO)NC(=O)[C@H](Cc1ccc(O)cc1)NC(=O)[C@H](CC(=O)O)NC(=O)[C@H](CO)NC(=O)[C@@H](NC(=O)[C@H](Cc1ccccc1)NC(=O)[C@@H](NC(=O)CNC(=O)[C@H](CCC(N)=O)NC(=O)C(C)(C)NC(=O)[C@@H](N)Cc1c[nH]cn1)[C@@H](C)O)[C@@H](C)O)C(=O)N[C@@H](CC(=O)O)C(=O)N[C@@H](Cc1ccccc1)C(=O)N[C@H](C(=O)N[C@@H](CCC(=O)O)C(=O)N[C@@H](Cc1c[nH]c2ccccc12)C(=O)N[C@@H](CC(C)C)C(=O)N[C@@H](CC(C)C)C(=O)N[C@@H](CO)C(=O)N[C@@H](C)C(N)=O)C(C)C)C(=O)O [Compound 35] (H-H[Aib]QGTFTSDYSKYLDSKAAK([γGlu-Palmitoyl])DFVEWLLSA-NH2),EC50,human Glucagon-R,0.18 nM
CCCCCCCCCCCCCCCC(=O)N[C@@H](CCC(=O)NCCCC[C@H](NC(=O)[C@H](CC(C)C)NC(=O)[C@H](CC(C)C)NC(=O)[C@H](Cc1c[nH]c2ccccc12)NC(=O)[C@H](CCC(=O)O)NC(=O)[C@@H](NC(=O)[C@H](Cc1ccccc1)NC(=O)[C@H](CC(=O)O)NC(=O)[C@H](Cc1c[nH]cn1)NC(=O)[C@H](C)NC(=O)[C@H](C)NC(=O)[C@H](CCCCN)NC(=O)[C@H](CO)NC(=O)[C@H](CC(=O)O)NC(=O)[C@H](CC(C)C)NC(=O)[C@H](Cc1ccc(O)cc1)NC(=O)[C@H](CCCCN)NC(=O)[C@H](CO)NC(=O)[C@H](Cc1ccc(O)cc1)NC(=O)[C@H](CC(=O)O)NC(=O)[C@H](CO)NC(=O)[C@@H](NC(=O)[C@H](Cc1ccccc1)NC(=O)[C@@H](NC(=O)CNC(=O)[C@H](CCC(N)=O)NC(=O)C(C)(C)NC(=O)[C@@H](N)Cc1c[nH]cn1)[C@@H](C)O)[C@@H](C)O)C(C)C)C(=O)N[C@@H](C)C(N)=O)C(=O)O [Compound 37] (H-H[Aib]QGTFTSDYSKYLDSKAAHDFVEWLLK([γGlu-Palmitoyl])A-NH2),EC50,human Glucagon-R,0.147 nM
CCCCCCCCCCCCCCCC(=O)N[C@@H](CCC(=O)NCCCC[C@H](NC(=O)[C@H](CO)NC(=O)[C@H](CC(=O)O)NC(=O)[C@H](CC(C)C)NC(=O)[C@H](Cc1ccc(O)cc1)NC(=O)[C@H](CCCCN)NC(=O)[C@H](CO)NC(=O)[C@H](Cc1ccc(O)cc1)NC(=O)[C@H](CC(=O)O)NC(=O)[C@H](CO)NC(=O)[C@@H](NC(=O)[C@H](Cc1ccccc1)NC(=O)[C@@H](NC(=O)CNC(=O)[C@H](CCC(N)=O)NC(=O)C(C)(C)NC(=O)[C@@H](N)Cc1c[nH]cn1)[C@@H](C)O)[C@@H](C)O)C(=O)N[C@@H](C)C(=O)N[C@@H](C)C(=O)N[C@@H](CCC(=O)O)C(=O)N[C@@H](CC(=O)O)C(=O)N[C@@H](Cc1ccccc1)C(=O)N[C@H](C(=O)N[C@@H](CCC(=O)O)C(=O)N[C@@H](Cc1c[nH]c2ccccc12)C(=O)N[C@@H](CC(C)C)C(=O)N[C@@H](CC(C)C)C(=O)N[C@@H](CO)C(=O)N[C@@H](C)C(N)=O)C(C)C)C(=O)O [Compound 42] (H-H[Aib]QGTFTSDYSKYLDSK([γGlu-Palmitoyl])AAEDFVEWLLSA-NH2),EC50,human Glucagon-R,0.27 nM
CCCCCCCCCCCCCCCC(=O)N[C@@H](CCC(=O)NCCCC[C@H](NC(=O)[C@H](CO)NC(=O)[C@H](CC(=O)O)NC(=O)[C@H](CC(C)C)NC(=O)[C@H](Cc1ccc(O)cc1)NC(=O)[C@H](CCCCN)NC(=O)[C@H](CO)NC(=O)[C@H](Cc1ccc(O)cc1)NC(=O)[C@H](CC(=O)O)NC(=O)[C@H](CO)NC(=O)[C@@H](NC(=O)[C@H](Cc1ccccc1)NC(=O)[C@@H](NC(=O)CNC(=O)[C@H](CCC(N)=O)NC(=O)C(C)(C)NC(=O)[C@@H](N)Cc1c[nH]cn1)[C@@H](C)O)[C@@H](C)O)C(=O)N[C@@H](C)C(=O)N[C@@H](C)C(=O)N[C@@H](Cc1c[nH]cn1)C(=O)N[C@@H](CC(=O)O)C(=O)N[C@@H](Cc1ccccc1)C(=O)N[C@H](C(=O)N[C@@H](CCC(=O)O)C(=O)N[C@@H](Cc1c[nH]c2ccccc12)C(=O)N[C@@H](CC(C)C)C(=O)N[C@@H](CC(C)C)C(=O)N[C@@H](CCC(=O)O)C(=O)N[C@@H](C)C(N)=O)C(C)C)C(=O)O [Compound 43] (H-H[Aib]QGTFTSDYSKYLDSK([γGlu-Palmitoyl])AAHDFVEWLLEA-NH2),EC50,human Glucagon-R,0.12 nM
CCCCCCCCCCCCCCCC(=O)N[C@@H](CCC(=O)NCCCC[C@H](NC(=O)[C@H](C)NC(=O)[C@H](C)NC(=O)[C@H](CCC(N)=O)NC(=O)CNC(=O)[C@H](CCC(=O)O)NC(=O)[C@H](CC(C)C)NC(=O)[C@H](Cc1ccc(O)cc1)NC(=O)[C@H](CO)NC(=O)[C@H](CO)NC(=O)[C@@H](NC(=O)[C@H](CC(=O)O)NC(=O)[C@H](CO)NC(=O)[C@@H](NC(=O)[C@H](Cc1ccccc1)NC(=O)[C@@H](NC(=O)CNC(=O)[C@H](CCC(=O)O)NC(=O)[C@H](C)NC(=O)[C@@H](N)Cc1cnc[nH]1)[C@@H](C)O)[C@@H](C)O)C(C)C)C(=O)N[C@@H](CCC(=O)O)C(=O)N[C@@H](Cc1ccccc1)C(=O)N[C@H](C(=O)N[C@@H](C)C(=O)N[C@@H](Cc1c[nH]c2ccccc12)C(=O)N[C@@H](CC(C)C)C(=O)N[C@H](C(=O)N[C@@H](CCCNC(=N)N)C(=O)NCC(=O)N[C@@H](CCCNC(=N)N)C(=O)NCC(=O)O)C(C)C)[C@@H](C)CC)C(=O)O [Liraglutide],GluR EC50 (nM) (1),GluR; experiment (1),∞
same,GluR EC50 (nM) (2),GluR; experiment (2),∞
same,GluR EC50 (nM) (log avg),GluR; log average of (1) and (2),∞
Exendin-4 [reference compound],"food intake, old obese mice",[1]; high fat diet for 52 weeks,reduced food intake in all time periods
same,"food intake, young lean mice",[1]; high fat diet for 11 days,"reduced food intake during the 0-2, 0-4, 0-8, 0-12 and 0-24 time periods"
same,"body weight gain, low dose",[2]; 0.5 nmol/kg b.i.d. s.c.,significantly decreased body weight gain at both doses
same,"body weight gain, high dose",[2]; 5 nmol/kg b.i.d. s.c.,significantly decreased body weight gain at both doses
H-HSQGTFTSDYSKYLDSKAAHDFVEWLLRA-NH2 [Compound 1],"liver weight/body weight ratio, high dose",[3],significantly increased
same,half-life,[4],13.8 min
